Assays:
[1] = logP by HPLC on reversed-phase columns (C 18), EU Guideline 79/831 Annex V.A8; type: physicochemical; conditions: for chromatographic logP: reversed-phase HPLC column (C 18); for logP: ** LC-MS in the neutral range
Lucilia cuprina larvae = assay: Lucilia cuprina test (LUCICU); type: in vivo; conditions: 100 ppm, treated horse meat, after 2 days
Method: Solvent: Dimethyl Sulphoxide To produce a suitable preparation of active compound, 10 mg of active compound are mixed with 0.5 ml of dimethyl sulphoxide, and the concentrate is diluted with water to the desired concentration. Containers containing horse meat treated with the active compound preparation of the desired concentration are populated with Lucilia cuprina larvae. After 2 days, the kill in % is determined. 100% means that all larvae have been killed; 0% means that none of the larvae have been killed.

adult Musca domestica = assay: Musca domestica test (MUSCDO); type: in vivo; conditions: treated sponge
Method: Solvent: Dimethyl sulphoxide To prepare a suitable preparation of active compound, 10 mg of active component are mixed with 0.5 ml of dimethyl sulphoxide, and the concentrate is diluted with water to the desired concentration. Vessels containing a sponge which had been treated with the active compound preparation of the desired concentration are populated with adult Musca domestica. After the desired period of time, the kill in % is determined. 100% means that all flies have been killed; 0% means that none of the flies have been killed.

[2] = system: caterpillars of the army worm (Spodoptera frugiperda); assay: Spodoptera frugiperda test (SPODFR spray treatment); type: in vivo; conditions: after 7 days
Method: Solvents: 78.0 parts by weight of acetone • • 1.5 parts by weight of dimethyl formamide Emulsifier: 0.5 part by weight of alkylaryl polyglycol ether To produce a suitable preparation of active compound, 1 part by weight of active compound is mixed with the stated amounts of solvent and emulsifier, and the concentrate is diluted with emulsifier-containing water to the desired concentration. Discs of maize leaves (Zea mays) are sprayed with an active compound preparation of the desired concentration and, after drying, populated with caterpillars of the army worm (Spodoptera frugiperda). After 7 days, the activity in % is determined. 100% means that all caterpillars have been killed; 0% means that none of the caterpillars have been killed. The test was carried out and evaluated as described in Example B.5.

Boophilus microplus = Boophilus microplus test (BOOPMI injection); type: in vivo; conditions: 20 μg/animal, injected into the abdomen, after 7 days
Method: Solvent: Dimethyl Sulphoxide To produce a suitable preparation of active compound, 10 mg of active compound are mixed with 0.5 ml of solvent, and the concentrate is diluted with water to the desired concentration. The active compound solution is injected into the abdomen (Boophilus microplus) and the animals are transferred into dishes and stored in a climatized room. The activity is monitored for deposition of fertile eggs. After 7 days, the activity in % is determined. 100% means that none of the ticks has laid fertile eggs.

Ctenocephalides felis = Ctenocephalides felis oral (CTECFE); type: in vivo; conditions: 100 ppm in citrated cattle blood, after 2 days
Method: Solvent: 1 part by weight of dimethyl sulphoxide To produce a suitable preparation of active compound, 10 mg of active compound are mixed with 0.5 ml of dimethyl sulphoxide. One part of the concentrate is diluted with citrated cattle blood, and the desired concentration is prepared. 20 unfed adult fleas (Ctenocephalides felis) are placed into a chamber whose top and bottom ends are closed with gauze. A metal cylinder whose bottom end is closed with parafilm is placed onto the chamber. The cylinder contains the blood/active compound preparation, which can be taken up by the fleas through the parafilm membrane. After 2 days, the kill in % is determined. 100% means that all fleas have been killed; 0% means that none of the fleas have been killed.

[3] = system: larvae of the mustard beetle (Phaedon cochleariae); assay: Phaedon test (PHAECO spray treatment); type: in vivo; conditions: after 7 days
Method: Solvents: 78.0 parts by weight of acetone • • 1.5 parts by weight of dimethyl formamide Emulsifier: 0.5 part by weight of alkylaryl polyglycol ether To produce a suitable preparation of active compound, 1 part by weight of active compound is mixed with the stated amounts of solvent and emulsifier, and the concentrate is diluted with emulsifier-containing water to the desired concentration. Discs of Chinese cabbage leaves (Brassica pekinensis) are sprayed with an active compound preparation of the desired concentration and, after drying, populated with larvae of the mustard beetle (Phaedon cochleariae). After 7 days, the activity in % is determined. 100% means that all beetle larvae have been killed; 0% means that none of the beetle larvae have been killed. The test was carried out and evaluated as described in Example B.4.

[4] = system: Boophilus microplus strain Parkhurst (SP-resistant); assay: Boophilus microplus test (DIP); type: in vivo; conditions: 100 ppm
Method: Test animals: adult fed females of the Boophilus microplus strain Parkhurst (SP-resistant)
Solvent: Dimethyl sulphoxide
10 mg of active compound are dissolved in 0.5 ml of dimethyl sulphoxide. To produce a suitable formulation, the active compound solution is diluted with water to the particular desired concentration. This active compound preparation is pipetted into tubes. 8-10 ticks are transferred into a further tube provided with holes. The tube is dipped into the active compound preparation, with all ticks being wetted completely. After the liquid has run off, the ticks are transferred to filter discs in plastic dishes and kept in a climatized room. After the desired period of time, the activity is checked for deposition of fertile eggs. Eggs whose fertility is not visible from the outside are kept in glass tubes in a climatized cupboard under the larvae have hatched. An activity of 100% means that no tick has laid fertile eggs.

[5] = pH 7.8, 0.001 molar aqueous ammonium bicarbonate and acetonitrile

| SMILES | chromatographic logP ([1]; pH 7.8, ** LC-MS in the neutral range, pH 7.8, 0.001 molar aqueous ammonium bicarbonate and acetonitrile) | kill (Lucilia cuprina larvae) | kill (adult Musca domestica; 20 ppm) | activity (caterpillars killed) ([2]; 100 g/ha) | activity (no deposition of fertile eggs) (Boophilus microplus) | kill (Ctenocephalides felis) | activity (beetle larvae killed) ([3]; 100 g/ha) | activity (caterpillars killed) ([2]; 20 g/ha) | activity (beetle larvae killed) ([3]; 4 g/ha) | kill (adult Musca domestica; 100 ppm) | logP [1, 5] | activity (no deposition of fertile eggs) [4] | chromatographic logP ([1]; pH 2.7, * LC-MS in the acidic range, pH 2.7, 0.1% aqueous formic acid and acetonitrile) |
| --- | --- | --- | --- | --- | --- | --- | --- | --- | --- | --- | --- | --- | --- |
| CC(C)O/C=N/c1c(-c2cc(Cl)cc(C(F)(F)F)c2)c(C(F)(F)F)nn1-c1ncccn1 [Example 1-13, isopropyl {4-[3-chloro-5-(trifluoromethyl)phenyl]-1-(pyrimidin-2-yl)-3-(trifluoromethyl)-1H-pyrazol-5-yl}imidoformate] | 4.88 | 100% | 100% | 100% | 100% | 95% | 100% | – | – | – | – | – | – |
| FC(F)(F)c1cc(Cl)cc(-c2c(C(F)(F)F)nn(-c3ncccn3)c2NCc2ccccc2)c1 [compound (XX), reference compound] | – | – | – | – | – | – | – | 0% | 0% | – | – | – | – |
| FC(F)(F)c1cc(Cl)cc(-c2c(C(F)(F)F)nn(-c3ncccn3)c2N=Cc2cccc(Br)c2)c1 [Example 1-39] | – | 100% | – | – | 100% | 80% | 100% | – | – | 100% | – | – | – |
| COc1ccc(C=Nc2c(-c3cc(Cl)cc(C(F)(F)F)c3)c(C(F)(F)F)nn2-c2nccnc2OC)cc1 [Example 2-8] | – | 100% | – | – | 100% | 95% | – | – | – | – | 5.48** | 100% | – |
| FC(F)(F)c1cc(Cl)cc(-c2c(C(F)(F)F)nn(-c3ncccn3)c2N=Cc2ccccc2Br)c1 [Example 1-31] | – | 100% | 90% | – | 100% | 90% | 100% | – | – | – | 5.64** | – | – |
| COc1cc(C=Nc2c(-c3cc(Cl)cc(C(F)(F)F)c3)c(C(F)(F)F)nn2-c2ncccn2)cc(OC)c1OC [Example 1-28] | – | 100% | – | 83% | 100% | 95% | 100% | – | – | 100% | 4.85** | – | – |
| COc1cc(C=Nc2c(-c3cc(Cl)c4c(c3)OCO4)c(C(F)(F)C(F)F)nn2-c2ncccn2)cc(OC)c1OC [Example 1-30] | – | 100% | – | 100% | 100% | 100% | 100% | – | – | – | 3.72** | 100% | – |
| CCOC=Nc1c(-c2cc(Cl)c3c(c2)OCO3)c(C(F)(F)F)nn1-c1ncccn1 [Example 1-33] | – | 100% | – | 100% | 100% | 100% | 100% | – | – | – | 3.49** | 100% | – |
| COc1nccnc1-n1nc(C(F)(F)F)c(-c2cc(Cl)c3c(c2)OCO3)c1N=Cc1ccccc1 [Example 2-6] | – | 100% | – | – | 100% | 100% | – | – | – | – | 4.58** | 100% | – |
| COc1nccnc1-n1nc(C(F)(F)F)c(-c2cc(Cl)cc(C(F)(F)F)c2)c1N=Cc1ccccc1 [Example 2-9] | – | 100% | 100% | – | 100% | 90% | 100% | – | – | – | 5.56** | – | – |
| FC(F)C(F)(F)c1nn(-c2ncccn2)c(N=Cc2ccccc2)c1-c1cc(Cl)cc(C(F)(F)F)c1 [Example 1-19] | – | 100% | – | 100% | 100% | 100% | 100% | – | – | 100% | 4.86** | – | – |
| FC(F)(F)c1cc(Cl)cc(-c2c(C(F)(F)C(F)(F)F)nn(-c3ncccn3)c2N=Cc2ccccc2)c1 [Example 1-42] | – | 100% | – | 100% | 100% | 95% | 100% | – | – | 100% | 5.46** | – | – |
| CN(C)/C=N/c1c(-c2cc(Cl)cc(Br)c2)c(C(F)(F)F)nn1-c1ncccn1 [Example 1-9, N′-[4-(3-bromo-5-chlorophenyl)-1-(pyrimidin-2-yl)-3-(trifluoromethyl)-1H-pyrazol-5-yl]-N,N-dimethylimidoformamide] | – | 100% | – | 100% | 100% | 100% | 100% | – | – | – | – | – | 3.71 |
| FC(F)C(F)(F)c1nn(-c2ncccn2)c(N=Cc2ccc(Cl)cc2)c1-c1cc(Cl)cc(C(F)(F)F)c1 [Example 1-20] | – | 100% | – | 100% | 100% | 95% | 100% | – | – | 100% | 5.37** | – | – |
| CCOC(C)=Nc1c(-c2cc(Cl)cc(C(F)(F)F)c2)c(C(F)(F)F)nn1-c1ncccn1 [Example 1-14] | – | 100% | – | – | 80% | 90% | 100% | – | – | 80% | 5.01** | – | – |
| COc1ccc(C=Nc2c(-c3cc(Cl)c4c(c3)OCO4)c(C(F)(F)C(F)F)nn2-c2nccnc2OC)cc1 [Example 2-12] | – | – | – | 100% | – | – | 100% | – | – | – | 4.41** | – | – |
| COc1ccc(C=Nc2c(-c3cc(Cl)c4c(c3)OCO4)c(C(F)(F)F)nn2-c2ncccn2)cc1 [Example 1-26] | – | 100% | – | 100% | 100% | 100% | 100% | – | – | – | 3.97** | 100% | – |
| COc1ccc(C=Nc2c(-c3cc(Cl)c4c(c3)OCO4)c(C(F)(F)C(F)F)nn2-c2ncccn2)cc1 [Example 1-23] | – | 100% | – | 100% | 100% | 100% | 100% | – | – | – | 3.85** | 100% | – |
| COc1cc(C=Nc2c(-c3cc(Cl)cc(C(F)(F)F)c3)c(C(F)(F)C(F)F)nn2-c2ncccn2)cc(OC)c1OC [Example 1-29] | – | 100% | – | 100% | 100% | 95% | 100% | – | – | 100% | 4.67** | – | – |
